Test results as given in paper PMC8550792, “Evolution of kinase polypharmacology across HSP90 drug discovery” (Cell Chemical Biology, 2021).

Tests used:
Test in all cases: biochemical
Type in all cases: biochemical
[1] = target: T1, 382 unique human kinases (Homo sapiens, UniProt P22607, K650M); conditions: FGFR3 (K650M), 10 uM; for remaining activity at 10 µM: read-out: % Enzyme Activity (relative to DMSO controls)
T1 construct: purchased Reaction Biology (HotSpot contract assay)

[2] = target: T2, 382 unique human kinases (Homo sapiens, UniProt P00533, T790M); conditions: kinase EGFR (T790M), compound 10 uM; for remaining activity at 10 µM: read-out: % Enzyme Activity (relative to DMSO controls)
T2 construct: purchased Reaction Biology (HotSpot contract assay)

[3] = target: T3, 382 unique human kinases (Homo sapiens, UniProt Q9Y2H1); conditions: STK38L/NDR2, compound at 10 uM, duplicate values; for remaining activity at 10 µM: read-out: % Enzyme Activity (relative to DMSO controls)
T3 construct: purchased Reaction Biology (HotSpot contract assay)

[4] = target: T4, 382 unique human kinases (Homo sapiens, UniProt Q96L34); conditions: kinase MARK4, compound 10 uM; for remaining activity at 10 µM: read-out: % Enzyme Activity (relative to DMSO controls)
T4 construct: purchased Reaction Biology (HotSpot contract assay)
T4 sequence (Q96L34 1-752): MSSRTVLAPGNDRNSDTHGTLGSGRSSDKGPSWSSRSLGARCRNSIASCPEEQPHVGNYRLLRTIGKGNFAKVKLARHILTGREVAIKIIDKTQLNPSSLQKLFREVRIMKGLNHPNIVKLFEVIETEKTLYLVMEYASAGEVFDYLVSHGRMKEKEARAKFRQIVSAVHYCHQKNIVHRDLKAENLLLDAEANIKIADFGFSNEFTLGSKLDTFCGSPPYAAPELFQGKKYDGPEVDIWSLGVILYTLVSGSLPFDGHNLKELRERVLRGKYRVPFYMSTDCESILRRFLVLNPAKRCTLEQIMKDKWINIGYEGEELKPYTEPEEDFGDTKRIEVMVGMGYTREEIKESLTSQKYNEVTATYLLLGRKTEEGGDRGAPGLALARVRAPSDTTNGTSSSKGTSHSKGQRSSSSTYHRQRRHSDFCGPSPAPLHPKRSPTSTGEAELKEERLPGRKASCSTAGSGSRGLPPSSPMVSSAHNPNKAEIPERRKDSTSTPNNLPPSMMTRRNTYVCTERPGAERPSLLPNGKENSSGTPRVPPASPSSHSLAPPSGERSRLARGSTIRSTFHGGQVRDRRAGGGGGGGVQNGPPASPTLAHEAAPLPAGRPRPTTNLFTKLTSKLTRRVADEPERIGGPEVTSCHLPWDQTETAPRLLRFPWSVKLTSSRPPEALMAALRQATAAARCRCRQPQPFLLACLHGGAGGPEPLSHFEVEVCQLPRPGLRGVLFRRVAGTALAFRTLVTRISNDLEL

[5] = target: T5, 382 unique human kinases (Homo sapiens, UniProt P00533, G719C); conditions: kinase EGFR (G719C), compound 10 uM; for remaining activity at 10 µM: read-out: % Enzyme Activity (relative to DMSO controls)
T5 construct: purchased Reaction Biology (HotSpot contract assay)

[6] = target: T6, 382 unique human kinases (Homo sapiens, UniProt P53779); conditions: JNK3, compound at 10 uM, duplicate values; for remaining activity at 10 µM: read-out: % Enzyme Activity (relative to DMSO controls)
T6 construct: purchased Reaction Biology (HotSpot contract assay)

[7] = target: T7, 382 unique human kinases (Homo sapiens, UniProt O43318); conditions: kinase TAK1, compound 10 uM; for remaining activity at 10 µM: read-out: % Enzyme Activity (relative to DMSO controls)
T7 construct: purchased Reaction Biology (HotSpot contract assay)
T7 sequence (O43318 1-606): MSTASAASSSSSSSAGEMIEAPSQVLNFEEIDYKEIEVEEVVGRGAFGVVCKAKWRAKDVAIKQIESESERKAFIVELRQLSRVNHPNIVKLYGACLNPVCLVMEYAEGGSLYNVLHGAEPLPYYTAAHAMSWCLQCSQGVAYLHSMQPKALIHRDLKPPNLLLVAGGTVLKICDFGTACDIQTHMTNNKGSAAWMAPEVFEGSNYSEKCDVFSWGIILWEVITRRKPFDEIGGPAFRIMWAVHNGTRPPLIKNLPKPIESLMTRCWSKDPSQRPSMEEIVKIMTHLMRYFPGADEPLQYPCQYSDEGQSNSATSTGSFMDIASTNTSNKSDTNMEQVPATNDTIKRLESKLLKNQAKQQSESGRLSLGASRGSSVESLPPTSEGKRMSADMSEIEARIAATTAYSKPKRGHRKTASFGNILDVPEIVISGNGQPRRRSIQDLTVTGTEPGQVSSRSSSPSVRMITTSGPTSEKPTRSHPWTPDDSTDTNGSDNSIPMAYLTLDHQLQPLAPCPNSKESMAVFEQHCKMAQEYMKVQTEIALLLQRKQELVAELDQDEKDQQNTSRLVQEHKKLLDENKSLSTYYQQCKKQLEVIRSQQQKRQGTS

[8] = target: 382 unique human kinases (Homo sapiens, UniProt Q9H1R3); conditions: kinase MLCK2/MYLK2, compound 10 uM; for remaining activity at 10 µM: read-out: % Enzyme Activity (relative to DMSO controls)
[9] = target: T8, 382 unique human kinases (Homo sapiens, UniProt P22455, V550E); conditions: FGFR4 (V550E), 10 uM; for remaining activity at 10 µM: read-out: % Enzyme Activity (relative to DMSO controls)
T8 construct: purchased Reaction Biology (HotSpot contract assay)

[10] = target: T9, 382 unique human kinases (Homo sapiens, UniProt P00533, DEL746-750); conditions: EGFR (d746-750), 10 uM; for remaining activity at 10 µM: read-out: % Enzyme Activity (relative to DMSO controls)
T9 construct: purchased Reaction Biology (HotSpot contract assay)

[11] = target: T10, 382 unique human kinases (Homo sapiens, UniProt O15075); conditions: DCAMKL1, 10 uM; for remaining activity at 10 µM: read-out: % Enzyme Activity (relative to DMSO controls)
T10 construct: purchased Reaction Biology (HotSpot contract assay)

[12] = target: T11, 382 unique human kinases (Homo sapiens, UniProt Q13976); conditions: PKG1a, 10 uM; for remaining activity at 10 µM: read-out: % Enzyme Activity (relative to DMSO controls)
T11 construct: purchased Reaction Biology (HotSpot contract assay)
T11 sequence (Q13976 1-671): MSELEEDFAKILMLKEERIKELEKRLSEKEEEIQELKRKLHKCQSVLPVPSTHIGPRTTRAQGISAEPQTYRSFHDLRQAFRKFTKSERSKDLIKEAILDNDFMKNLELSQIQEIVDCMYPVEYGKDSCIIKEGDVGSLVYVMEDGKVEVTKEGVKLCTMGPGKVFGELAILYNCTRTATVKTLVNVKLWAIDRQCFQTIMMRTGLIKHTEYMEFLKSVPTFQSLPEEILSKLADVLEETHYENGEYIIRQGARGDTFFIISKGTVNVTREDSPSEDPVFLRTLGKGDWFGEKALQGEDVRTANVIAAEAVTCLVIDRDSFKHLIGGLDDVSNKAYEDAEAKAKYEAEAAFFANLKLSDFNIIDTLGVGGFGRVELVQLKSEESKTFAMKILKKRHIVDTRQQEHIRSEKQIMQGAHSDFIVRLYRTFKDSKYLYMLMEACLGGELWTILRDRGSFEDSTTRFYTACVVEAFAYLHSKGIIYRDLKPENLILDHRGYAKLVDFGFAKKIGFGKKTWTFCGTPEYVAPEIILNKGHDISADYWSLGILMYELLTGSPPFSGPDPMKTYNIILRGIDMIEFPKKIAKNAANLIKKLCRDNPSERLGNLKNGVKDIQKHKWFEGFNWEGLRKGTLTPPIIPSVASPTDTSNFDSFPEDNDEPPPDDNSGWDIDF

T10 sequence (O15075 whole entry): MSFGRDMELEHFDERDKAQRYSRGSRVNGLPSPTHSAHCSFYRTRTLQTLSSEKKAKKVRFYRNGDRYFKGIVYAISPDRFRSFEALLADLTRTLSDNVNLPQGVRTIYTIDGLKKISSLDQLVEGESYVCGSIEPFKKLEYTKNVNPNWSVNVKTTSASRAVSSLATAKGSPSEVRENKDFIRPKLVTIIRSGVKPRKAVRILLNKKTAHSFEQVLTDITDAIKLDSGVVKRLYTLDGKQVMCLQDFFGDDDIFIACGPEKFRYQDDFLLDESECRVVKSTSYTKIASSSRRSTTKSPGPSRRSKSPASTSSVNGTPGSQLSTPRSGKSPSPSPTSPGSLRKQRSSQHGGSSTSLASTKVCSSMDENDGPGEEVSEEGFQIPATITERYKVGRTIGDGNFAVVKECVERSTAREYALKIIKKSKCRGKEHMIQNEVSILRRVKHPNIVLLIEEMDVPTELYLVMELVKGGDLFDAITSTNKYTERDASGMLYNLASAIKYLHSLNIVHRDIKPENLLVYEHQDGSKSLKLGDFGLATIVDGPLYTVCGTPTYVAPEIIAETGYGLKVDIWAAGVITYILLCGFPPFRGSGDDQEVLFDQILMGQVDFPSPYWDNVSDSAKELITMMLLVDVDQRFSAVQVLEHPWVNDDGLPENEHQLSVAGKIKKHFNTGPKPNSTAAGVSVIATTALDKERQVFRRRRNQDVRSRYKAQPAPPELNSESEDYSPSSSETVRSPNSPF
T3 sequence (Q9Y2H1 whole entry): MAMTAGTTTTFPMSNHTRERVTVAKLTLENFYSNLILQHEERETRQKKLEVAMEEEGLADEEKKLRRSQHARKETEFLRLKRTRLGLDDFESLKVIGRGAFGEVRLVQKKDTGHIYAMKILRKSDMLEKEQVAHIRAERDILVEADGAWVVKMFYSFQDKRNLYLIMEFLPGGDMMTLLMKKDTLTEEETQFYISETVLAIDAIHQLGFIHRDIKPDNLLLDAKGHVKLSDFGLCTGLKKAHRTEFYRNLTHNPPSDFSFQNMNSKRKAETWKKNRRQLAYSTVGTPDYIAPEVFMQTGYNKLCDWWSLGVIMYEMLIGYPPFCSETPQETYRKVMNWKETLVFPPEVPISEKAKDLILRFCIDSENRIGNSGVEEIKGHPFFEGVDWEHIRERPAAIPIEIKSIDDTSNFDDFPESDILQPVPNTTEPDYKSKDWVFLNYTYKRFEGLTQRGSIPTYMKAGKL
T1 sequence (P22607 23-806 K650M): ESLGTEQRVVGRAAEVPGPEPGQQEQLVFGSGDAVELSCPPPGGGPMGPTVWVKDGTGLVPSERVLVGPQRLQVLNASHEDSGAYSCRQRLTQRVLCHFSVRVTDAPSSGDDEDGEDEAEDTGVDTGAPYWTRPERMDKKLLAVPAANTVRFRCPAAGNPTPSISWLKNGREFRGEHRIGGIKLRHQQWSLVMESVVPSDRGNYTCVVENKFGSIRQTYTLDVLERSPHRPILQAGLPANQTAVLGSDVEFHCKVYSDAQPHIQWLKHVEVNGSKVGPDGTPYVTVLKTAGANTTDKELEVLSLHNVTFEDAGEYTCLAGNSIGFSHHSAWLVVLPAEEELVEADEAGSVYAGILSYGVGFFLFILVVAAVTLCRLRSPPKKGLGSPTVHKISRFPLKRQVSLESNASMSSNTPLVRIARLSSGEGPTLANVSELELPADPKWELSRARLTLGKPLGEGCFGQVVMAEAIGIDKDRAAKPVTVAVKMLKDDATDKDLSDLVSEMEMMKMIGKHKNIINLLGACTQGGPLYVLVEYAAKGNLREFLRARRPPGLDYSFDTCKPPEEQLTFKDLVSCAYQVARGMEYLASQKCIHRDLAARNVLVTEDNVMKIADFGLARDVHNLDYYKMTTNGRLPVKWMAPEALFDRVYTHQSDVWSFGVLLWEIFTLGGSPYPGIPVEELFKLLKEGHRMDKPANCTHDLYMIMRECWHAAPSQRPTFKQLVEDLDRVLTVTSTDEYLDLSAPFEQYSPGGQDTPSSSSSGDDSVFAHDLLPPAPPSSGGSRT
382 unique human kinases (Homo sapiens, UniProt Q9H1R3), sequence (Q9H1R3 whole entry): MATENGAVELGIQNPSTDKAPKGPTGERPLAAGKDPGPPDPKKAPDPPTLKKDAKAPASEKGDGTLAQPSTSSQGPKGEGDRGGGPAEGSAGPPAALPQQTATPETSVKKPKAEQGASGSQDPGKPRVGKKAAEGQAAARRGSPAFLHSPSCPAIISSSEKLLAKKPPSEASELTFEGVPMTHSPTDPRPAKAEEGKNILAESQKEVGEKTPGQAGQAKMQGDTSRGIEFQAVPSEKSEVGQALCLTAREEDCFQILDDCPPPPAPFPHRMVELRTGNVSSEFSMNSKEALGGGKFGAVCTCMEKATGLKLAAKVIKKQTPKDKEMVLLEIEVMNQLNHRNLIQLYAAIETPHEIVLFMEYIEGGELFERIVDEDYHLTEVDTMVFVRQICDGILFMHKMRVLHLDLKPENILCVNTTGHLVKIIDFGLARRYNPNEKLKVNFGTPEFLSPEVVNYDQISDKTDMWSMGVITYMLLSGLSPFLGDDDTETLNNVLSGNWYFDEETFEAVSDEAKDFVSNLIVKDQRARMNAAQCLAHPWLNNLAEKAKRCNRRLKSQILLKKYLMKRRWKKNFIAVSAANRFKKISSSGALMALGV
T8 sequence (P22455 22-802 V550E): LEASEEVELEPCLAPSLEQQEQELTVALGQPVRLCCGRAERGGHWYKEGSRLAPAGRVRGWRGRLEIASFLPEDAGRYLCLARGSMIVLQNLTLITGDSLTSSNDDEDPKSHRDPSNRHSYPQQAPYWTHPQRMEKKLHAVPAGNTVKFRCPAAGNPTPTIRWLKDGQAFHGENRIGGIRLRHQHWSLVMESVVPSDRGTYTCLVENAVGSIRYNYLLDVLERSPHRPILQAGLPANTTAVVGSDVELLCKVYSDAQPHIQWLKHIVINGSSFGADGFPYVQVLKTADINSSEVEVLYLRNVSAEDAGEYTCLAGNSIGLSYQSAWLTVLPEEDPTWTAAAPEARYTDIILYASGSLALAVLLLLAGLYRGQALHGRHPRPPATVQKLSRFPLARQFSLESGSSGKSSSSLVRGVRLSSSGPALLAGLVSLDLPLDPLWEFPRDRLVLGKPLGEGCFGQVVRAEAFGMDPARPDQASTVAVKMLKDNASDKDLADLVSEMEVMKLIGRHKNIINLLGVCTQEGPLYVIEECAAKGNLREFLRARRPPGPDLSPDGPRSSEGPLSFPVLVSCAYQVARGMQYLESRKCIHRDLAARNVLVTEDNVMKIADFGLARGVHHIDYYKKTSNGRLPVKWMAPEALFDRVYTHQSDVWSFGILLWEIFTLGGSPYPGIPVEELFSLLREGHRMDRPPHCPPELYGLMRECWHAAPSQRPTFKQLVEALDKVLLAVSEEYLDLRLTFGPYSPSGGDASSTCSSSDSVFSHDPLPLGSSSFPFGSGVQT
T6 sequence (P53779 whole entry): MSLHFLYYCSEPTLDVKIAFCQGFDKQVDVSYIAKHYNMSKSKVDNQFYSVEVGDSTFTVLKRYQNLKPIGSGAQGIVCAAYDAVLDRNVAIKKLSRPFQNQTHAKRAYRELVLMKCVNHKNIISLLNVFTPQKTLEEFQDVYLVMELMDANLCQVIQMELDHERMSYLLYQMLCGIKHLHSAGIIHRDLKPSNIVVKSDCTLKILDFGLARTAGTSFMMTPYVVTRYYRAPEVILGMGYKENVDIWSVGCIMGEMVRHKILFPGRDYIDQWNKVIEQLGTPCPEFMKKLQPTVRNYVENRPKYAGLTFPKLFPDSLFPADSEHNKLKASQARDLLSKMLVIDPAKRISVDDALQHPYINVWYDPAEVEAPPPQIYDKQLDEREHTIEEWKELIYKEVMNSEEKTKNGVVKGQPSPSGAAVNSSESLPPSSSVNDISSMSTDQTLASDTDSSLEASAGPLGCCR

Structure (SMILES) | remaining activity at 10 µM [1] | remaining activity at 10 µM [2] | remaining activity at 10 µM [3] | remaining activity at 10 µM [4] | remaining activity at 10 µM [5] | remaining activity at 10 µM [6] | remaining activity at 10 µM [7] | remaining activity at 10 µM [8] | remaining activity at 10 µM [9] | remaining activity at 10 µM [10] | remaining activity at 10 µM [11] | remaining activity at 10 µM [12] | further results
CC(C)c1cc(-c2n[nH]c(=O)n2-c2ccc3c(ccn3C)c2)c(O)cc1O [Ganetespib (STA9090)] | 86.5% | 85.7% | 105% | 91% | 84.6% | 118% | 85.8% | 80.2% | – | – | – | – | –
CC(C)c1cc(-c2n[nH]c(=O)n2-c2ccc3c(ccn3C)c2)c(O)cc1O [Ganetespib] | – | – | – | – | – | – | – | – | 96.9% | 91.8% | 113% | 90.9% | –
CCNC(=O)c1noc(-c2cc(C(C)C)c(O)cc2O)c1-c1ccc(CN2CCOCC2)cc1 [Luminespib (AUY-922)] | 78.7% | 95.4% | 108% | 97.1% | 100% | 107% | 96.7% | 95.1% | – | – | – | – | % Enzyme Activity (relative to DMSO controls) [1]: 70.76%; % Enzyme Activity (relative to DMSO controls) [2]: 95.04%; % Enzyme Activity (relative to DMSO controls) [3]: 105.09%; % Enzyme Activity (relative to DMSO controls) [4]: 95.99%; % Enzyme Activity (relative to DMSO controls) [5]: 99.10%; % Enzyme Activity (relative to DMSO controls) [6]: 106.79%; % Enzyme Activity (relative to DMSO controls) [7]: 96.28%; % Enzyme Activity (relative to DMSO controls) [8]: 91.17%
CCNC(=O)c1noc(-c2cc(C(C)C)c(O)cc2O)c1-c1ccc(CN2CCOCC2)cc1 [Luminespib] | – | – | – | – | – | – | – | – | 101% | 94% | 96.9% | 95.7% | % Enzyme Activity (relative to DMSO controls) [9]: 100.42%; % Enzyme Activity (relative to DMSO controls) [10]: 93.74%; % Enzyme Activity (relative to DMSO controls) [11]: 95.95%; % Enzyme Activity (relative to DMSO controls) [12]: 92.81%
